Tests used:
[1] = test system: Chinese hamster lung-derived CHL/IU cells; assay: Evaluation of phospholipidosis induction ability using cultured cell line (NBD-PE incorporation); format: cell-based; conditions: 24 hours, positive = 25% or more of amiodarone maximum reaction at cell viability 50% or more; for phospholipidosis induction ability (judgement): 6.25-100 μmol/L
Experimental: Chinese hamster lung-derived CHL/IU cells were suspended in an MEM-E culture solution containing non-essential amino acids, sodium pyruvate and 10% foetal bovine serum and seeded in a 96-well plate. The cells cultured overnight in an incubator (5% carbon dioxide, 95% air, 37° C.) were further cultured for 24 hours after replacing the culture solution with a culture solution containing 6.25, 12.5, 25, 50 or 100 μmol/L of a test substance and NBD-PE (fluorescence label N-(7-nitrobenz-2-oxa-1,3-diazol-4-yl)-1,2-dihexadecanoyl-sn-glycero-3-phosphoethanolamine triethylammonium salt) obtained from Molecular Probes. The phospholipidosis induction ability was evaluated by measuring the concentration of NBD-PE incorporated into the cells. Specifically, the cells were washed twice with PBS and then measured for the fluorescence of NBD-PE (excitation wavelength: 485 nm, fluorescence wavelength: 535 nm) incorporated in the cells on a SpectraMax plate reader available from Molecular Devices, LLC. for evaluation. After measurement of the fluorescence of NBD-PE, the cell viability was evaluated with Premix WST-1 Cell Proliferation Assay System available from TaKaRa Bio Inc. The phospholipidosis induction ability was judged to be positive when, at a dose that provided a cell viability of 50% or more, the reaction (the concentration of NBD-PE incorporated after administration of a test substance) was 25% or more of the maximum reaction of a positive control amiodarone (the concentration of NBD-PE incorporated into the cells after administration of amiodarone was regarded as 100%).

human SSTR2 = biological target: T1, human SSTR2 (Homo sapiens, UniProt P30874); assay: Evaluation of SSTR2 agonistic activity using cells expressing human SSTR2 (suppression of forskolin-stimulated cAMP production, SSTR2-CHO-K1); format: cell-based; conditions: suppression of cAMP production by forskolin stimulation, 1000 nmol/L octreotide = 100%
T1 construct: Myc; expressed in transfected cells

GH secretion = assay: Evaluation of suppression of growth hormone (GH) secretion using rats (GHRH-induced); format: in vivo; conditions: Rattus norvegicus, 5 min, oral, dosage of 1 mg/kg, GHRH given 8 hours after dosing, blood GH 5 minutes after GHRH
Experimental: A medium (distilled water (Otsuka distilled water, Otsuka Pharmaceutical Factory, Inc.)) or a test compound dissolved in the medium was orally administered to rats (7-week old male Crl:CD(SD) IGS rats (Charles River Laboratories Japan, Inc.)) and after 7 hours and 57 minutes, the animals were administered with 50 mg/kg of pentobarbital sodium (Somnopentyl, Kyoritsu Seiyaku Corporation) via the tail vein for anaesthesia. Three minutes after administration of pentobarbital sodium, the rats were administered with 0.01 mg/kg of growth hormone-releasing hormone (GHRH, Bachem) via the tail vein to induce GH secretion. In order to measure the blood GH concentration, 0.2 mL of blood was collected through the jugular vein at 5 minutes after administration of GHRH. The collected blood was centrifuged at 4° C., 13,000×g for 5 minutes to obtain plasma. The blood GH concentration was measured by using Rat/Mouse Growth Hormone ELISA (Millipore) following the instruction of the kit. The percentage (%) of suppression of GH secretion was determined by using the obtained blood GH concentration and the equation {[suppression (%) of GH secretion]=([blood GH concentration of the group administered with the medium]−[blood GH concentration of the group administered with a test compound])/[blood GH concentration of the group administered with the medium]×100}. In the equation, the group administered with the medium represents the group of animals administered with the medium and the group administered with a test compound represents the group of animals administered with a test compound dissolved in the medium.

hERG K+ channel = biological target: T2, hERG K+ channel (Homo sapiens, UniProt Q12809); assay: Evaluation of hERG K+ channel inhibitory activity using cells expressing human ERG (automated patch-clamp, CHO-K1); format: cell-based; conditions: CHO-K1 cells with human ERG gene, tested at 1, 3 and 10 μmol/L, 5-minute incubation
T2 construct: expressed in transfected cells; host or cells: CHO-K1
Experimental: Evaluation of hERG K^+ Channel Inhibitory Activity Using Cells Expressing Human ERG
CHO-K1 cells having the human ERG gene (ether-a-go-go related gene) introduced therein were subcultured in an F-12 medium [F-12 Nutrient Mixture (HAM)] containing 10% inactivated foetal bovine serum, 100 IU/mL penicillin-100 μg/mL streptomycin and 200 μg/mL geneticin.
Patch-clamp was performed in a full-automated manner using CHO-K1 cells having the human ERG gene introduced therein and having a perforated patch formed therein with amphotericin B. For the experiment, a 384-well PatchPlate™ was used and the cell suspension and compounds were added thereto. The IKr current was measured with command voltages of holding potential of −80 mV, depolarization potential of +40 mV (2 seconds) and repolarization potential of −50 mV (2 seconds). The stimulation frequency was twice (single pulse stimulations) before and after the treatment with a drug (the concentrations of a compound for evaluation were 1, 3 and 10 μmol/L, a 5-minute incubation), and the Ikr maximum current was measured. The inhibition (%) on the CHO-K1 cells having the human ERG gene introduced therein was determined by correcting the variation in the maximum tail current before and after addition of the test substance by the variation thereof in the group treated with a medium (inhibition (%)=(1-variation in current before and after addition of a test substance/variation in current before and after addition of a medium)×100). The 50% inhibitory concentration (IC50 value) was calculated from a line connecting two points on both sides of the inhibition of 50%.

T1 sequence (P30874 whole entry): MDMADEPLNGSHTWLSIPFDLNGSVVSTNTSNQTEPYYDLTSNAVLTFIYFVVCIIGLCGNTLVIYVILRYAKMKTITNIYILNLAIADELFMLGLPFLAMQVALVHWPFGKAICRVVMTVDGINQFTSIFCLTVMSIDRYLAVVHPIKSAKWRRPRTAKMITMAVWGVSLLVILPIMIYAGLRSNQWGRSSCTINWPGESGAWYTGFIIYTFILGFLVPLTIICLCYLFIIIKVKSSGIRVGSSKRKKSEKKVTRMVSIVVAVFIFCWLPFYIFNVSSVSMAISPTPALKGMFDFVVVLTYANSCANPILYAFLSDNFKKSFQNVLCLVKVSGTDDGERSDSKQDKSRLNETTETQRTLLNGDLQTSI
T2 sequence (Q12809 whole entry): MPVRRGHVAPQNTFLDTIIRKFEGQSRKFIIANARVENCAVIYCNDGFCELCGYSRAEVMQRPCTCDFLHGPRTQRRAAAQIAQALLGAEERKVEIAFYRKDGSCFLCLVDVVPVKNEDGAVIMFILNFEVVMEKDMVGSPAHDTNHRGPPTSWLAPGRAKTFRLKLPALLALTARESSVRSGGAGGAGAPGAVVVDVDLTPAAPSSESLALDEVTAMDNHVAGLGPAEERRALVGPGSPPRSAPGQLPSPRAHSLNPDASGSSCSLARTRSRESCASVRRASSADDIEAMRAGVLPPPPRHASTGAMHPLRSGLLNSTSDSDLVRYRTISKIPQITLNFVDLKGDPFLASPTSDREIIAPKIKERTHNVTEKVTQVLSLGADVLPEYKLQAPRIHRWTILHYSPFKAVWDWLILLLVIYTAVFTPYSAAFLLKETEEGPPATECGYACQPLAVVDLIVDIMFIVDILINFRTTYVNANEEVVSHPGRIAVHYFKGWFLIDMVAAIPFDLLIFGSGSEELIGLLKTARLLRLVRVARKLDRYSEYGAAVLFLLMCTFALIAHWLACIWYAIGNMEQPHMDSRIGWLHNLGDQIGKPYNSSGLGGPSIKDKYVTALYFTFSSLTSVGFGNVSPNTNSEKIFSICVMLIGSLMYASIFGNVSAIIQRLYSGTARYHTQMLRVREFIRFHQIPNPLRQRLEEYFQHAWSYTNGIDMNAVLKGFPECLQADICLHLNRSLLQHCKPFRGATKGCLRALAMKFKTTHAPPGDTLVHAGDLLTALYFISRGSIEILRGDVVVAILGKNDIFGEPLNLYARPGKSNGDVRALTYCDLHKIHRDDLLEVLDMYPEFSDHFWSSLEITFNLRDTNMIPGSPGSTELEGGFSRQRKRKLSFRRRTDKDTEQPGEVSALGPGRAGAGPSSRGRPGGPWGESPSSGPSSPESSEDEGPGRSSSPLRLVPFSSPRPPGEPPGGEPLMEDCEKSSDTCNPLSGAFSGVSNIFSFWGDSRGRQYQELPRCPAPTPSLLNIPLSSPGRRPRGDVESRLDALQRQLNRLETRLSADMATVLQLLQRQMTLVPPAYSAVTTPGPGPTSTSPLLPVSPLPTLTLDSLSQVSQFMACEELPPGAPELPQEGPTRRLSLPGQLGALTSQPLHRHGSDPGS

SMILES	phospholipidosis induction ability (judgement) [1]	EC50 (human SSTR2) [nM]	inhibition in vivo at 1 mg/kg (GH secretion) [%]	IC50 (hERG K+ channel) [nM]	concentration at which judged to be positive in phospholipidosis induction ability [1] [µM]
Cc1ncc(-c2cc(F)cc(F)c2)c(N2CC[C@@H](NCCC(F)(F)F)[C@@H](O)C2)c1-c1nc2cc(F)c(F)cc2[nH]1 [Example 3(12), (3S,4R)-1-[3-(5,6-difluoro-1H-benzimidazol-2-yl)-5-(3,5-difluorophenyl)-2-methyl-4-pyridinyl]-4-[(3,3,3-trifluoropropyl)amino]-3-piperidinol]	negative	1	85	5100	
COc1ccc2nc(-c3cncc(-c4cc(F)ccc4F)c3N3CC[C@@H](N)[C@@H](O)C3)[nH]c2c1 [Example 4(15), (3S,4R)-4-amino-1-[3-(2,5-difluorophenyl)-5-(6-methoxy-1H-benzimidazol-2-yl)-4-pyridinyl]-3-piperidinol]		0.012		9100	25
N[C@@H]1CCN(c2c(-c3cc(F)cc(F)c3)cncc2-c2nc3cc(F)c(F)cc3[nH]2)C[C@@H]1O [Example 4, (3S,4R)-4-amino-1-[3-(5,6-difluoro-1H-benzimidazol-2-yl)-5-(3,5-difluorophenyl)-4-pyridinyl]-3-piperidinol]		0.015		6900	≥ 12.5
CCN[C@@H]1CCN(c2c(-c3nc4cc(F)c(F)cc4[nH]3)cncc2-c2cc(F)ccc2F)C[C@@H]1O [Example 5(4), (3S,4R)-1-[3-(5,6-difluoro-1H-benzimidazol-2-yl)-5-(2,5-difluorophenyl)-4-pyridinyl]-4-(ethylamino)-3-piperidinol]	negative	0.031	90	8400	
O[C@H]1CN(c2c(-c3cc(F)cc(Cl)c3)cncc2-c2nc3cc(F)c(F)cc3[nH]2)CC[C@H]1NCCC(F)(F)F [Example 5(3), (3S,4R)-1-[3-(3-chloro-5-fluorophenyl)-5-(5,6-difluoro-1H-benzimidazol-2-yl)-4-pyridinyl]-4-[(3,3,3-trifluoropropyl)amino]-3-piperidinol]	negative	0.28		≥ 10000	
N[C@@H]1CCN(c2c(-c3cc(F)cc(F)c3)cncc2-c2nc3ccccc3[nH]2)C[C@@H]1O [Example 4(4), (3S,4R)-4-amino-1-[3-(1H-benzimidazol-2-yl)-5-(3,5-difluorophenyl)-4-pyridinyl]-3-piperidinol]		0.0093		6700	25
Cc1ncc(-c2cc(F)cc(F)c2)c(N2CC[C@@H](N)[C@@H](O)C2)c1-c1nc2cc(F)c(F)c(F)c2[nH]1 [Example 2(13), (3S,4R)-4-amino-1-[5-(3,5-difluorophenyl)-2-methyl-3-(5,6,7-trifluoro-1H-benzimidazol-2-yl)-4-pyridinyl]-3-piperidinol]		0.017		≥ 10000	
Cc1ncc(-c2cc(F)cc(Cl)c2)c(N2CC[C@@H](NC3COC3)[C@@H](O)C2)c1-c1nc2cc(F)c(F)cc2[nH]1 [Example 3(5), (3S,4R)-1-[5-(3-chloro-5-fluorophenyl)-3-(5,6-difluoro-1H-benzimidazol-2-yl)-2-methyl-4-pyridinyl]-4-(3-oxetanylamino)-3-piperidinol]	negative	0.023	83	9600	
COC(=O)c1cc(F)cc2nc(-c3c(C)ncc(-c4cc(F)ccc4F)c3N3CC[C@@H](N)[C@@H](O)C3)[nH]c12 [Example 2(12), Methyl 2-{4-[(3S,4R)-4-amino-3-hydroxy-1-piperidinyl]-5-(2,5-difluorophenyl)-2-methyl-3-pyridinyl}-5-fluoro-1H-benzimidazole-7-carboxylate]		0.016		9400	
CCN[C@@H]1CCN(c2c(-c3cc(F)cc(F)c3)cnc(C)c2-c2nc3cc(F)c(OC)cc3[nH]2)C[C@@H]1O [Example 3(4), (3S,4R)-1-[5-(3,5-difluorophenyl)-3-(5-fluoro-6-methoxy-1H-benzimidazol-2-yl)-2-methyl-4-pyridinyl]-4-(ethylamino)-3-piperidinol]		0.056	71	≥ 10000	
Cn1cc(-c2ncc(-c3cc(F)cc(F)c3)c(N3CC[C@@H](N)[C@@H](O)C3)c2-c2nc3cc(F)c(F)cc3[nH]2)cn1 [Example 1(2), (3S,4R)-4-amino-1-[3-(5,6-difluoro-1H-benzimidazol-2-yl)-5-(3,5-difluorophenyl)-2-(1-methyl-1H-pyrazol-4-yl)-4-pyridinyl]-3-piperidinol]	negative	0.032		≥ 10000	
CCN[C@@H]1CCN(c2c(-c3cc(F)cc(F)c3)cnc(C)c2-c2nc3cc(F)c(F)c(F)c3[nH]2)C[C@@H]1O [Example 3(15), (3S,4R)-1-[5-(3,5-difluorophenyl)-2-methyl-3-(5,6,7-trifluoro-1H-benzimidazol-2-yl)-4-pyridinyl]-4-(ethylamino)-3-piperidinol]		0.47	66	5800	
COc1ccc2nc(-c3c(C)ncc(-c4cc(F)cc(Cl)c4)c3N3CC[C@@H](NC4COC4)[C@@H](O)C3)[nH]c2c1 [Example 3, (3S,4R)-1-[5-(3-chloro-5-fluorophenyl)-3-(6-methoxy-1H-benzimidazol-2-yl)-2-methyl-4-pyridinyl]-4-(3-oxetanylamino)-3-piperidinol]	negative	0.027		≥ 10000	
COc1cc(F)cc(-c2cncc(-c3nc4cc(F)c(F)cc4[nH]3)c2N2CC[C@@H](NCCC(F)(F)F)[C@@H](O)C2)c1 [Example 5(5), (3S,4R)-1-[3-(5,6-difluoro-1H-benzimidazol-2-yl)-5-(3-fluoro-5-methoxyphenyl)-4-pyridinyl]-4-[(3,3,3-trifluoropropyl)amino]-3-piperidinol]	negative	0.42		≥ 10000	
COC(=O)c1cc(F)cc2nc(-c3c(N4CCOCC4)ncc(-c4cc(F)cc(F)c4)c3N3CC[C@@H](N)[C@@H](O)C3)[nH]c12 [Example 6, Methyl 2-{4-[(3S,4R)-4-amino-3-hydroxy-1-piperidinyl]-5-(3,5-difluorophenyl)-2-(4-morpholinyl)-3-pyridinyl}-5-fluoro-1H-benzimidazole-7-carboxylate]		0.081		4400	50
